Reference: patent US20260048099A1, “SYNERGISTIC INTERACTIONS FOR IMPROVED CANCER TREATMENT” (THE UNITED STATES OF AMERICA, AS REPRESENTED BY THE …, priority 2022, published 2026)

What was measured:
[1] = test system: tumor-infiltrating CD8^+T, NK cells and DC populations in EO771 tumors; experiment: Flow cytometry and IHC of immune infiltrates in EO771 tumors and draining lymph nodes; type: in vivo, C57BL/6 mice; conditions: flow cytometry
Procedure: EO771 tumors were analyzed by flow cytometry and immunohistochemistry (IHC) to explore the changes in the tumor immune phenotype upon hetIL-15 treatment. The shorter treatment schedule consisting of 3 hetIL-15 injections was used for these analyses and the tumors were assessed 48 h after the last injection (FIG. 1A). […] Overall, hetIL-15 administration altered the tumor microenvironment by promoting the intratumoral infiltration of activated cytotoxic T and NK cells, as we previously reported (Bergamaschi et al., 2020; Ng et al., 2017).
Guided by our transcriptomic data and our recent report (Bergamaschi et al., 2020), we established a flow cytometry staining protocol (FIG. 3B) that allows distinction of different myeloid cell populations (Bottcher et al., 2018; Guilliams et al., 2016). CD103^+cDC1s were defined as Lin(NK1.1,CD19,B220,CD3)^negCD64^−MHCII^+CD11c^+CD103^+CD11b^−; CD11b^+cDC2s were defined as Lin(NK1.1,CD19,B220,CD3)^negCD64^−MHCII^+CD11c^+CD103^−CD11b^+ and macrophages were defined as Lin(NK1.1, CD19,B220,CD3)^negCD64^+F4/80^+. […] Importantly, tumor infiltration by both […] and CD103^intCD11b^+DCs inversely correlated with the EO771 tumor size in hetIL-15 treated animals 48 hrs after the 3rd hetIL-15 injection (FIG. 3F). In contrast, no correlation between intratumoral CD11b^+cDC2s and tumor size was observed (FIG. 3F).
Tissue samples, including tumors, were fixed in 10% neutral buffered formalin (NBF, Sigma) then routinely processed and paraffin embedded. Tumor and lung sections were dewaxed and rehydrated and then were stained with hematoxylin and eosin (H&E). For immunohistochemistry, sections were antigen-retrieved with heat-induced or enzymatic method. Peroxidase activity was blocked using 1.5% hydrogen peroxide. Sections were blocked with different blocking protocols, depending on the antibody. […]
At necropsy tumors and dLNs were processed for flow cytometric analysis. […] The samples were acquired on a Fortessa (BD Biosciences) flow cytometer, and the data were analyzed using the FlowJo software (Tree Star).

xenograft models = conditions: cited from earlier work
NK-92 cells = experiment: IFN-γ production by stimulated NK-92 cells; type: cell-based; conditions: stimulation of NK-92 cells

CC(C)(C)c1cc(NC(=O)Nc2ccc(-c3cn4c(n3)sc3cc(OCCN5CCOCC5)ccc34)cc2)no1.Cl.Cl [AC220, N-(5-tert-butyl-isoxazol-3-yl)-N′-{4-[7-(2-morpholin-4-yl-ethoxy)imidazo[2,1-b][1,3]benzothiazol-2-yl]phenyl}urea dihydrochloride]
Intratumoral CD11b+cDC2 (cells per gram of tissue) [1]: increased infiltration of CD11b^+cDC2s
Intratumoral CD103+cDC1 (cells per gram of tissue) [1]: a minor effect on CD103+cDC1s, decreasing this DC population
Intratumoral CD103intCD11b+DC (cells per gram of tissue) [1]: no significant difference
Lowest dose with activity in animal models (xenograft models; doses as low as): 1 mg/kg
Efficacy and tolerability (xenograft models; xenograft models): good efficacy and tolerability

B1: IL-12p70: active IL-12 heterodimer of IL-12A (p35) and IL-12B (p40), referred to as p70 (protein, UniProt P29459 23-219; P29460 23-328, looked up)
Interleukin-12 subunit alpha: RNLPVATPDPGMFPCLHHSQNLLRAVSNMLQKARQTLEFYPCTSEEIDHEDITKDKTSTVEACLPLELTKNESCLNSRETSFITNGSCLASRKTSFMMALCLSSIYEDLKMYQVEFKTMNAKLLMDPKRQIFLDQNMLAVIDELMQALNFNSETVPQKSSLEEPDFYKTKIKLCILLHAFRIRAVTIDRVMSYLNAS
Interleukin-12 subunit beta: IWELKKDVYVVELDWYPDAPGEMVVLTCDTPEEDGITWTLDQSSEVLGSGKTLTIQVKEFGDAGQYTCHKGGEVLSHSLLLLHKKEDGIWSTDILKDQKEPKNKTFLRCEAKNYSGRFTCWWLTTISTDLTFSVKSSRGSSDPQGVTCGAATLSAERVRGDNKEYEYSVECQEDSACPAAEESLPIEVMVDAVHKLKYENYTSSFFIRDIIKPDPPKNLQLKPLKNSRQVEVSWEYPDTWSTPHSYFSLTFCVQVQGKSKREKKDRVFTDKTSATVICRKNASISVRAQDRYYSSSWSEWASVPCS
IFN-γ production (NK-92 cells): results in IFN-γ production
